Test results reported in patent US12325681B2, “Inhibitors of nitric oxide synthases (NOS), pharmaceutical products thereof, and methods thereof” (Gacter Inc., priority 2022, dated 2025).
Counter-ions that a name gives are not always drawn.

Tests used:
[1] = molecular target: T1, iNOS (Homo sapiens, UniProt P35228); assay: abcam NOS Inhibitor Screening Kit, IC50 (fluorescence); type: biochemical; design: IC50; IC50; conditions: abcam NOS Inhibitor Screening Kit
Method: (§1) The IC50 of some compounds of the invention was determined using the abcam NOS Inhibitor Screening Kit. The procedure includes the following steps: (1) Dissolved a test compound to 10 mM in DMSO; (2) Diluted the test compound to 1 mM in NOS Assay Buffer; (3) Diluted 1 mM of the test compound stocks to 200 μM, 50 μM, 12.5 μM, 3.125 μM, 0.781 μM, and 0.195 μM in NOS Assay Buffer; (4) Diluted 1 mM DPI Control to 50.0 μM, 12.5 μM, 3.125 μM, 0.781 μM, 0.195 μM, and 0.0488 μM in NOS Assay Buffer; (5) Diluted NOS enzyme with 400 μL of NOS Assay Buffer; (6) Combined Diluted NOS Enzyme with 1.6 mL of NOS Assay buffer then transferred 20 μL of enzyme solution to all wells of 96-well Fluorescence plate except background wells. Added 20 μL of NOS Assay buffer to background wells. (7) Transferred 10 uL of each test compound dilution to the enzyme buffer mix according to the plate map (see addendum for plate map and raw data values). (8) Incubated 15 minutes at room temperature. (9) Added 11 μL of NOS reaction mix (according to manufacturer's protocol) to each well, mixed, and incubated at 37° C. for 1 hour. (10) Added 110 μL of NOS Assay Buffer to each well followed by 5 μL of Enhancer to each well, mixed, and incubated 10 minutes at room temperature; (11) Added 10 μL of Probe to each well, mixed, and incubated 10 minutes at room temperature; and (12) Added 5 μL of NaOH to each well, mixed, and incubated 10 minutes at room temperature. Measure Fluorescence at 360 nm excitation/450 nm emission.

[2] = molecular target: T1, iNOS; assay: as above; type: biochemical; design: Fold (GT-xxxx)/AZ 6b; conditions: ratio of IC50 to AZ 6b IC50 (0.0488 μM)
Method: as §1

Row | SMILES | IC50 ([1]; Table C-1) [µM] | IC50 ([1]; Table C-2) [µM] | Fold (GT-xxxx)/AZ 6b [2]
1 | Cl.N#Cc1ccc(Cl)cc1CN(CCN)c1ccccc1 [GT-7003, 2-(((2-aminoethyl)(phenyl)amino)methyl)-4-chlorobenzonitrile hydrochloride] | 0.064 | 0.064 | 1.31
2 | Cc1ccc(C#N)c(O[C@H](CCNCCCO)c2ccccc2)n1 [GT-5015] | 1.74 | – | –
3 | CNCC[C@@H](Oc1cc(Cl)cc2[nH]cnc12)c1ccccc1 [GT-6058, (R)-3-((6-chloro-1H-benzo[d]imidazol-4-yl)oxy)-N-methyl-3-phenylpropan-1-amine] | 0.457 | 0.457 | 9.36
4 | Cc1ccc(C#N)c(O[C@H](CCNCCN(C)C)c2ccccc2)n1 [GT-5019, (R)-2-(3-((2-(dimethylamino)ethyl)amino)-1-phenylpropoxy)-6-methyl nicotinonitrile] | 9.62 | – | –
5 | N#Cc1ccc(Cl)cc1OC(CCN1C(=O)c2ccccc2C1=O)c1ccn2ccnc2c1 (stereo not shown) [GT-6065, 4-chloro-2-(3-(1,3-dioxoisoindolin-2-yl)-1-(imidazo[1,2-a]pyridin-7-yl)propoxy)benzonitrile] | 0.0678 | 0.0678 | 1.39
6 | OCCNCC[C@@H](Oc1cc(Cl)cc2[nH]cnc12)c1ccccc1 [GT-6060, (R)-2-((3-((6-chloro-1H-benzo[d]imidazol-4-yl)oxy)-3-phenylpropyl)amino)ethan-1-ol] | 0.444 | 0.444 | 9.10
7 | Cc1ccc(C#N)c(O[C@H](CCNCCc2c[nH]cn2)c2ccccc2)n1 [GT-5023, (R)-2-(3-((2-(1H-imidazol-4-yl)ethyl)amino)-1-phenylpropoxy)-6-methylnicotinonitrile] | 5.43 | – | –
8 | N#Cc1ccc(Cl)cc1C(=O)N(CCNCC1CC1)c1ccccc1 [GT-7019, 5-chloro-2-cyano-N-(2-((cyclopropylmethyl)amino)ethyl)-N-phenyl benzamide] | 0.438 | 0.438 | 8.98
9 | N#Cc1ccc(Cl)cc1CN(CCNC(CO)CO)c1ccccc1 [GT-7018, 4-chloro-2-(((2-((1,3-dihydroxypropan-2-yl)amino)ethyl)(phenyl)amino)methyl)benzonitrile] | 20.3 | – | –
10 | Cc1ccc(C#N)c(O[C@H](CCNCC2CC2)c2ccccc2)n1 [GT-5031, (R)-2-(3-((cyclopropylmethyl)amino)-1-phenylpropoxy)-6-methylnicotinonitrile] | 4.54 | – | –
11 | N#Cc1ccc(Cl)cc1CN(CCNC1CCC(O)CC1)c1ccccc1 (single isomer, unassigned) [GT-7024, 4-chloro-2-(((2-((4-hydroxycyclohexyl)amino)ethyl)(phenyl)amino)methyl) benzonitrile] | 14.4 | – | –
12 | N#Cc1ccc(Cl)cc1CN(CCNCCO)c1ccccc1 [GT-7010, 4-chloro-2-(((2-((2-hydroxyethyl)amino)ethyl)(phenyl)amino)methyl) benzonitrile] | 9.18 | – | –
13 | N#Cc1ccc(Cl)cc1OC(CCN)c1ccnc(N)c1 (stereo not shown) [GT-6064, 2-(3-amino-1-(2-aminopyridin-4-yl)propoxy)-4-chlorobenzonitrile] | 0.0285 | 0.0285 | 0.58
14 | N#Cc1ccc(Cl)cc1C(=O)N(CCNC(CO)CO)c1ccccc1 [GT-7017, 5-chloro-2-cyano-N-(2-((1,3-dihydroxypropan-2-yl)amino)ethyl)-N-phenylbenzamide] | 3.66 | – | –
15 | N#Cc1ccc(Cl)cc1CN(CCNC1CCC(O)CC1)c1ccccc1 (single isomer, unassigned) [GT-7023, 4-chloro-2-(((2-((4-hydroxycyclohexyl)amino)ethyl)(phenyl)amino)methyl) benzonitrile] | 10.5 | – | –
16 | Cc1ccc(C#N)c(O[C@H](CCNC[C@H](O)CO)c2ccccc2)n1 [GT-5024, 2-((R)-3-(((S)-2,3-dihydroxypropyl)amino)-1-phenylpropoxy)-6-methylnicotinonitrile] | 2.34 | – | –
17 | Cc1ccc(C#N)c(O[C@H](CCN)c2ccccc2)n1 [GT-5001, (R)-2-(3-amino-1-phenylpropoxy)-6-methylnicotinonitrile] | 1.59 | – | –
18 | Cc1ccc(C#N)c(O[C@H](CCNCCO)c2ccccc2)n1 [GT-5014, (R)-2-(3-((2-hydroxyethyl)amino)-1-phenylpropoxy)-6-methylnicotinonitrile] | 2.17 | – | –
19 | CNCC[C@@H](Oc1cc(Cl)cc2[nH]ncc12)c1ccccc1 [GT-6059, (R)-3-((6-chloro-1H-indazol-4-yl)oxy)-N-methyl-3-phenylpropan-1-amine] | 0.252 | 0.252 | 5.16

Row | SMILES | IC50 ([1]; Table C-1) [µM] | IC50 ([1]; Table C-2) [µM] | Fold (GT-xxxx)/AZ 6b [2]
20 | Cc1ccc(C#N)c(O[C@H](CCNC[C@@H](O)CO)c2ccccc2)n1 [GT-5025, 2-((R)-3-(((R)-2,3-dihydroxypropyl)amino)-1-phenylpropoxy)-6-methylnicotinonitrile] | 3.56 | – | –
21 | N#Cc1ccc(Cl)cc1CN(CCN)c1ccccc1Cl [GT-7004, 2-(((2-aminoethyl)(2-chlorophenyl)amino)methyl)-4-chlorobenzonitrile hydrochloride] | 5.79 | – | –
22 | N#Cc1ccc(Cl)cc1C(=O)N(CCN)c1ccccc1Cl [GT-7002, N-(2-aminoethyl)-5-chloro-N-(2-chlorophenyl)-2-cyanobenzamide] | 0.112 | 0.112 | 2.30
23 | Cc1ccc(C#N)c(O[C@H](CCNC(C)(C)C)c2ccccc2)n1 [GT-5018, (R)-2-(3-(tert-butylamino)-1-phenylpropoxy)-6-methylnicotinonitrile] | 5.04 | – | –
24 | Cc1ccc(C#N)c(O[C@H](CCN2CC[C@@H](O)C2)c2ccccc2)n1 [GT-5017, 2-((R)-3-((R)-3-hydroxypyrrolidin-1-yl)-1-phenylpropoxy)-6-methyl nicotinonitrile] | 6.75 | – | –
25 | CNCC[C@@H](Oc1nc(C(F)(F)F)ccc1C#N)c1ccccc1 [GT-5013, (R)-2-(3-(methylamino)-1-phenylpropoxy)-6-(trifluoromethyl) nicotinonitrile] | 23.3 | – | –
26 | NCCN(C(=O)c1cc(Cl)ccc1Br)c1ccccc1Cl [GT-7007, N-(2-aminoethyl)-2-bromo-5-chloro-N-(2-chlorophenyl) benzamide] | 0.0955 | 0.0955 | 1.96
27 | N#Cc1ccc(Cl)cc1C(=O)N(CCNCCO)c1ccccc1 [GT-7009, 5-chloro-2-cyano-N-(2-((2-hydroxyethyl)amino)ethyl)-N-phenylbenzamide] | 0.148 | 0.148 | 3.03
28 | N#Cc1ccc(Cl)cc1C(=O)N(CCNCCCO)c1ccccc1 [GT-7011, 5-chloro-2-cyano-N-(2-((3-hydroxypropyl)amino)ethyl)-N-phenylbenzamide] | 0.29 | 0.29 | 5.94
29 | NCCN(Cc1cc(Cl)ccc1Br)c1ccccc1Cl [GT-7008, N1-(2-bromo-5-chlorobenzyl)-N1-(2-chlorophenyl)ethane-1,2-diamine hydrochloride] | 5.56 | – | –
30 | O=C1c2ccccc2C(=O)N1CC[C@@H](Oc1cc(Cl)cc2[nH]ncc12)c1ccccc1 [GT-6066, (R)-2-(3-((6-chloro-1H-indazol-4-yl)oxy)-3-phenylpropyl)isoindoline-1,3-dione] | 0.27 | 0.27 | 5.53
31 | NCCN(Cc1cc(Cl)ccc1Br)c1ccccc1 [GT-7006, N1-(2-bromo-5-chlorobenzyl)-N1-phenylethane-1,2-diamine] | 157 | – | –
32 | CNCC[C@@H](Oc1nc(C)ccc1Br)c1ccccc1 [GT-5012, (R)-3-((3-bromo-6-methylpyridin-2-yl)oxy)-N-methyl-3-phenylpropan-1-amine] | 12600 | – | –
33 | N#Cc1ccc(Cl)cc1CN(CCNC[C@@H](O)CO)c1ccccc1 [GT-7016, (R)-4-chloro-2-(((2-((2,3-dihydroxypropyl)amino)ethyl)(phenyl)amino)methyl)benzonitrile] | 8.52 | – | –
34 | Cc1ccc(C#N)c(O[C@H](CCN2CC[C@H](O)C2)c2ccccc2)n1 [GT-5016, 2-((R)-3-((S)-3-hydroxypyrrolidin-1-yl)-1-phenylpropoxy)-6-methyl nicotinonitrile] | 4.04 | – | –
35 | N#Cc1ccc(Cl)cc1CN(CCNCC1CC1)c1ccccc1 [GT-7020, 4-chloro-2-(((2-((cyclopropylmethyl)amino)ethyl)(phenyl)amino)methyl) benzonitrile] | 15.5 | – | –
36 | CNCC[C@@H](Oc1nc(C)ccc1C#N)c1ccccc1 [GT-5002, (R)-6-methyl-2-(3-(methylamino)-1-phenylpropoxy)nicotinonitrile] | 1.35 | – | –
37 | Cc1ccc(C#N)c(O[C@H](CCNCCN2CCOCC2)c2ccccc2)n1 [GT-5020, (R)-6-methyl-2-(3-((2-morpholinoethyl)amino)-1-phenylpropoxy)nicotinonitrile] | 7.29 | – | –
